According to patent US20210369846A1 (priority 2018, published 2021):
Where “and” joins values, the source holds several entries; their conditions need not be identical. Identical values can stand only once. Entries after “also recorded” stand apart in the source; their conditions may differ. Marks after values point to notes of the source that are not given here.

Columns and labels:
[1] = system: blood
[2] = system: L929 mouse fibroblasts
[3] = Particle size distribution of O/W emulsions with Accusizer 780 Optical Particle Sizer; type: physicochemical; settings: O/W emulsion; footnote c: measured with Accusizer 780 Optical Particle Sizer
Procedure: In an exemplary method of preparation, 180 mg of the surfactant was dissolved in 9 mL of ultrapure water (MilliQ), then 1 mL of Perfluorodecalin was added to the solution. The mixture was sonicated using an UP400St Hielscher ultrasonic homogenizer. Operation parameters of the device: A=90% (amplitude), continuous operation mode, sonotrode type—H14. The process of ultrasonic homogenization was carried out for about 2 minutes, while the reaction vessel was intensely cooled using an ice bath. 10 mL of the o/w emulsion with 10% v/v of the perfluorinated phase relative to the aqueous phase was obtained. As can be appreciated, this method is merely exemplary, and other methods or preparation approaches may be used.
The emulsion particle size distribution was determined using the Accusizer 780 Optical Particle Sizer PSS NICOMP device. A series of dilutions of the analyzed emulsion were prepared: 10-fold, 100-fold and 1000-fold with ultrapure water (MilliQ), in triplicate. The particle size distribution of the 1000-fold diluted emulsion was examined, a minimum of 3 measurements were taken, preparing approximately 30 mL of the diluted emulsion for each one of them. The results were presented by the several values: the average diameter (given in μm), and the percentage number of particles in different ranges (for example, in the diameter range 0.5-2 μm, 2-5 μm, 5-10 μm, >10 μm). The values from these three measurements were averaged and standard deviation was calculated.

[4] = system: HMEC-1 human vascular endothelial cells
[5] = system: male Sprague Dawley rats; test: Red blood cells substitute in vivo test: gradual bleeding with compensation in rats under general anaesthesia; set-up: species or system rat; settings: for Amount of 5-min intervals (duration until cardiac cessation, per rat): exchange of 5% of blood volume per interval; for Amount of 5-min intervals (duration until cardiac cessation, per rat) / Amount of 5-min intervals expressed in min (per rat): individual rats; for Hematocrit at the end of the experiment: gradual decrease from physiological values; for Systolic blood pressure was >40 mm Hg for: tail cuff; for pH maintained at 7.3 up to: venous blood
Procedure: The study protocol was approved by the Local Ethical Committee (No. WAW2/057/2018), Warsaw University of Life Sciences, Warsaw, Poland. Study was carried out by the Department of Large Animal Diseases with the Clinic of the Faculty of Veterinary Medicine of the Warsaw University of Life Sciences in Warsaw. The study involved male Sprague Dawley rats (n=19; weight, 400±20 g; age, 8 to 12 weeks) obtained from the Mossakowski Medical Research Centre, Polish Academy of Sciences (Warsaw, Poland) divided into 4 non-equal groups (table below). The animals were kept in accordance with national animal welfare guidelines.
12 h before the experiment, feedstuffs were removed from animals' cages without restrictions to the water. Animals were weighted for circulating blood volume calculation according to Lee and Blaufox (1985) and anesthetized by intramuscular injection of the mixture of Ceptor—0.1 mL (Scanvet), Butomidor—0.1 mL (Richter Pharma AG) and Bioketan—0.1 mL (Vetoquinol). Within 2 min after injection, animals were placed in the dorsal position, on Thermo-Controlled Surgery Platform (Braintree Scientific, USA) and the catheter for blood collection was implanted.
A silicone catheter (Scientific Commodities INC, USA) was inserted into the left common jugular vein towards the heart and fastened with a tie (non-absorbable twisted strand, 4-0) for best fluid delivery and blood sampling. The catheter was kept filled with Ringer's fluid between the blood removals. The catheter's patency was maintained without the use of anti-clotting agents. The skin was not stitched, a swab moistened with saline solution was applied to the wound. Then the rats were transferred to a GN 1/1 electric heating plate (temp. 37±1° C., Bartscher, Poland), where a cuff was applied to the rat's tail to measure bloodless tail blood pressure (MLT125R, ADI, Australia), connected to the system NIBP (Non-Invasive Blood Pressure, ADI, Australia) and eight-channel PowerLab (ADI, Australia) and PC. Throughout the experiment, pulse and blood pressure were recorded in the Chart program (ADI, Australia). During the entire experiment, systolic and mean arterial blood readings were taken up to a blood pressure systolic threshold reading of 40 mm Hg between blood collections.
A total of 4 experiment variants were performed, as in the table above, using the method of gradual bleeding with compensation described in the previous experiment (5% of circulating blood). Compensations were used in subsequent experiments: Voluven fluid (Hydroxyethyl starch (HES 130/0.4), dextran 130 kDa, Fresenius Kabi) and formulations 2j3c, 2j3e and 2l3e (NanoSanguis) administered in Voluven fluid (concentration 0.5% w/v).
In venous blood samples, blood gas determinations (Siemens EPOC gasometer) were performed: pH, pCO2 (CO2 pressure, mm Hg), pO2 (oxygen pressure, mm Hg), cHCO3-(bicarbonate ion concentration, mmol/L), BE (ecf) (deficiency in blood buffering bases, mmol/L), hematocrit (Hct, %, less precise measurement than in a morphology analyzer), glucose (mg/dL), lactate (Lac, mmol/L), creatinine (Crea, mg/dL) followed by morphology (Mindray analyzer): hematocrit (hct, %), hemoglobin (g/L), red blood cell count (RBC, 10^12/L), white blood cell count (WBC, ×10^9/L) and platelet count (PLT, ×10^9/L). […] The results are given in the attached Excel spreadsheet. Blood for other biochemical analyses was centrifuged and frozen (−20° C.). Collected organ (liver, kidney, lung and heart) samples were fixed in buffered formalin, and after 48 hours. transferred to 70% ethyl alcohol and stored for histological examination. Histological examination was performed after routine staining of the hematoxylin and eosin sections.

[6] = system: L929 and HMEC-1 cell lines

| SMILES | Maximum Non-Hemolytic Concentration [1] | Maximum Non-Cytotoxic Concentration L929 [2] | Average diameter [3] | Maximum Non-Cytotoxic Concentration HMEC-1 [4] | other results |
| --- | --- | --- | --- | --- | --- |
| O=C(O)CSCCC(F)(F)C(F)(F)C(F)(F)C(F)(F)C(F)(F)C(F)(F)C(F)(F)C(F)(F)F [2a3b] | 0.25% | 0.5% | 640 ± 10 ^c nm | 0.5% | – |
| O=C(O)CSCCC(F)(F)C(F)(F)C(F)(F)C(F)(F)C(F)(F)C(F)(F)C(F)(F)C(F)(F)F [2a3d] | 0.02% | 0.2% | 640 ± 10 ^c nm | 0.1% | – |
| O=C([O-])CSCCC(F)(F)C(F)(F)C(F)(F)C(F)(F)C(F)(F)C(F)(F)C(F)(F)C(F)(F)F.[K+] [2aK] | >2.00% | 1% | 770 ± 20 ^c nm | 1% | – |
| O=C([O-])CSCCC(F)(F)C(F)(F)C(F)(F)C(F)(F)C(F)(F)C(F)(F)C(F)(F)C(F)(F)F.[Na+] [2cNa] | 0.5% | 1% | 710 ± 20 ^c nm | 0.2% | – |
| O=C([O-])CCC(=O)OCCC(F)(F)C(F)(F)C(F)(F)C(F)(F)C(F)(F)C(F)(F)F.[K+] [2iK] | 0.02% | <0.25** % | 880 ± 40 ^c nm | 0.25% | – |
| O=C(O)CCC(=O)OCCC(F)(F)C(F)(F)C(F)(F)C(F)(F)C(F)(F)C(F)(F)C(F)(F)C(F)(F)F [2j3c] | >2.00% | 0.25% | – | 0.5% | Lactate concentration above physiological values (limit 8.5 mmol/L) occurred at intervals ([5]; 0.5% w/v in Voluven): 15 intervals and 19 intervals; RBC at the end of the experiment ([5]; 0.5% w/v in Voluven): ~2e+12 L⁻¹; Survival of rats higher compared to the control group receiving Voluven ([5]; 0.5% w/v in Voluven): 7 intervals; WBC at the end of the experiment ([5]; 0.5% w/v in Voluven): ~1e+09 L⁻¹; Amount of 5-min intervals (duration until cardiac cessation, per rat) ([5]; 0.5% w/v in Voluven): 24 5-min intervals and 23 5-min intervals and 18 5-min intervals (2×) and 11 5-min intervals; Hematocrit at the end of the experiment ([5]; 0.5% w/v in Voluven): about 9%; Amount of 5-min intervals expressed in min (per rat) ([5]; 0.5% w/v in Voluven): 55 min and 120 min and 115 min and 90 min (2×); Systolic blood pressure was >40 mm Hg for ([5]; 0.5% w/v in Voluven): 12 intervals and 20 intervals; pH maintained at 7.3 up to ([5]; 0.5% w/v in Voluven): 13 intervals and 17 intervals |
| O=C(O)CCC(=O)OCCC(F)(F)C(F)(F)C(F)(F)C(F)(F)C(F)(F)C(F)(F)C(F)(F)C(F)(F)F [2j3e] | 1% | 0.5% | – | 0.5% | Buffer balance deficiency (Be (ecf)) occurred at ([5]; 0.5% w/v in Voluven): 14-19 intervals; Lactate concentration above physiological values (limit 8.5 mmol/L) occurred at intervals ([5]; 0.5% w/v in Voluven): 13-19 intervals; Survival of rats higher compared to the control group receiving Voluven ([5]; 0.5% w/v in Voluven): 8 intervals; Amount of 5-min intervals (duration until cardiac cessation, per rat) ([5]; 0.5% w/v in Voluven): 15 5-min intervals and 17 5-min intervals and 21 5-min intervals and 25 5-min intervals and 29 5-min intervals; Hematocrit at the end of the experiment ([5]; 0.5% w/v in Voluven): about 5%; Amount of 5-min intervals expressed in min (per rat) ([5]; 0.5% w/v in Voluven): 145 min and 75 min and 85 min and 105 min and 125 min; pH maintained at 7.3 up to ([5]; 0.5% w/v in Voluven): 13 intervals and 20 intervals; Maintaining systolic pressure above the limit, comparing to other test groups ([5]; limit 40 mm Hg): longer |
| O=C([O-])CCC(=O)OCCC(F)(F)C(F)(F)C(F)(F)C(F)(F)C(F)(F)C(F)(F)C(F)(F)C(F)(F)F.[K+] [2jK] | >2.00% | <0.25% | 1090 ± 10 ^c nm | 0.5% | – |
| O=C([O-])CCC(=O)OCCC(F)(F)C(F)(F)C(F)(F)C(F)(F)C(F)(F)C(F)(F)C(F)(F)C(F)(F)F.[Na+] [2jNa] | 1% | <0.25% | 820 ± 20 ^c nm | 0.5% | – |
| O=C(O)CCCC(=O)OCCC(F)(F)C(F)(F)C(F)(F)C(F)(F)C(F)(F)C(F)(F)C(F)(F)C(F)(F)F [2l3e] | >2.00% | >2.00% | – | >2.00% | Survival of rats higher compared to the control group receiving Voluven ([5]; 0.5% w/v in Voluven): 10 intervals; Amount of 5-min intervals (duration until cardiac cessation, per rat) ([5]; 0.5% w/v in Voluven): 10 5-min intervals and 13 5-min intervals and 21 5-min intervals and 28 5-min intervals and 31 5-min intervals; Amount of 5-min intervals expressed in min (per rat) ([5]; 0.5% w/v in Voluven): 155 min and 60 min and 75 min and 105 min and 140 min; Systolic blood pressure was >40 mm Hg for ([5]; 0.5% w/v in Voluven): 18-22 intervals; pH maintained at 7.3 up to ([5]; 0.5% w/v in Voluven): 20-21 intervals; Change caused slower in comparison to the control group ([5]; control: Voluven): pH decrease; also recorded: increase in pCO2; also recorded: decrease in buffer base deficiency; also recorded: increase of lactate and creatinine |
| O=C(O)CCCC(=O)OCCC(F)(F)C(F)(F)C(F)(F)C(F)(F)C(F)(F)C(F)(F)C(F)(F)C(F)(F)F [2l3k] | >2.00% | >1.00% | – | >1.00% | Cytotoxic potential [6]: low cytotoxic potential |
